The target of this assay is T1, PD-1/PD-L1 (Homo sapiens, UniProt Q9NZQ7).
T1 construct: made in house; host or cells: HEK293T
Kind of assay: PD-1/PD-L1 Homogenous Time-Resolved Fluorescence (HTRF) binding assay. The following applies: PD-L1-His 10 nM, PD-1-Ig 20 nM; value given as range class; read-out: Range or IC50. The essentials: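 Compounds are tested for blocking the PD-1/PD-L1 interaction in dPBS supplemented with 0.1% BSA and 0.05% (v/v) Tween-20. Tagged proteins are detected with Eu-cryptate anti-Ig and APC anti-His at 1 and 20 nM final.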
For orientation: Time-resolved FRET reads energy transfer from a long-lived donor to a nearby acceptor.

pIC50: −log10 of the molar value.

T1 sequence (Q9NZQ7 with tags, fused parts or gaps): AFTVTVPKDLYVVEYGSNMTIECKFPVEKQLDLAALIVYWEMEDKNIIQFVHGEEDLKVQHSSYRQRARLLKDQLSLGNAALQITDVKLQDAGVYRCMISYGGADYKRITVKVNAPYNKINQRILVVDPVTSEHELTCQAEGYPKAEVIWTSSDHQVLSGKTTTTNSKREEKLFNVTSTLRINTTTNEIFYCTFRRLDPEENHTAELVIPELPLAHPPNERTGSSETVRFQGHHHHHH

Usually pIC50 stands for the IC50 on a negative log10 scale, so that one unit is a factor of ten. For the compound `Cc1c(COc2cc(OCc3cncc(C#N)c3)c(CN[C@](C)(CO)C(=O)O)cc2Cl)cccc1-c1cccc(OCCCN[C@](C)(CO)C(=O)O)c1Cl` [Example 2023, (R)-2-((3-((3′-((4-((((R)-2-carboxy-1-hydroxypropan-2-yl)amino)methyl)-2-chloro-5-((5-cyanopyridin-3-yl)methoxy)phenoxy)methyl)-2-chloro-2′-methyl-[1,1′-biphenyl]-3-yl)oxy)propyl)amino)-3-hydroxy-2-methylpropanoic Acid], the pIC50 was 8.00 to 9.68.
`Cc1c(COc2cc(OCc3cncc(C#N)c3)c(CN[C@](C)(CO)C(=O)O)cc2Cl)cccc1-c1cccc(OCCCN(C)C[C@H](O)CO)c1Cl` [Example 2024, (R)-2-((5-chloro-4-((2′-chloro-3′-(3-(((S)-2,3-dihydroxypropyl)(methyl)amino)propoxy)-2-methyl-[1,1′-biphenyl]-3-yl)methoxy)-2-((5-cyanopyridin-3-yl)methoxy)benzyl)amino)-3-hydroxy-2-methylpropanoic Acid]: the pIC50 was 8.00 to 9.68.
Regarding `Cc1c(COc2cc(OCc3cncc(C#N)c3)c(CO)cc2Cl)cccc1-c1cccc(OCCCN(C)C[C@H](O)CO)c1Cl` [Example 2025, (S)-5-((4-chloro-5-((2′-chloro-3′-(3-((2,3-dihydroxypropyl)(methyl)amino)propoxy)-2-methyl-[1,1′-biphenyl]-3-yl)methoxy)-2-(hydroxymethyl)phenoxy)methyl)nicotinonitrile], the pIC50 is 8.00 to 9.68.
Take `COC(=O)C1CCN(CCCOc2cccc(-c3cccc(COc4cc(OCc5cncc(C#N)c5)c(CNC[C@H](O)CO)cc4Cl)c3C)c2Cl)CC1` [Example 2027, (S)-methyl 1-(3-((2-chloro-3′-((2-chloro-5-((5-cyanopyridin-3-yl)methoxy)-4-(((2,3-dihydroxypropyl)amino)methyl)phenoxy)methyl)-2′-methyl-[1,1′-biphenyl]-3-yl)oxy)propyl)piperidine-4-carboxylate]: the pIC50 is 8.00 to 9.68.
For the compound `Cc1c(COc2cc(OCc3cncc(C#N)c3)c(CNC[C@H](O)CO)cc2Cl)cccc1-c1cccc(OCCCN2CC(N(C)C)C2)c1Cl` [Example 2028, (S)-5-((4-chloro-5-((2′-chloro-3′-(3-(3-(dimethylamino)azetidin-1-yl)propoxy)-2-methyl-[1,1′-biphenyl]-3-yl)methoxy)-2-(((2,3-dihydroxypropyl)amino)methyl)phenoxy)methyl)nicotinonitrile], the pIC50 was 8.00 to 9.68.
For `Cc1c(COc2cc(OCc3cncc(C#N)c3)c(CNC[C@H](O)CO)cc2Cl)cccc1-c1cccc(OCCCN(C)C[C@H](O)CO)c1Cl` [Example 2029, 5-((4-chloro-5-((2′-chloro-3′-(3-(((S)-2,3-dihydroxypropyl)(methyl)amino)propoxy)-2-methyl-[1,1′-biphenyl]-3-yl)methoxy)-2-((((S)-2,3-dihydroxypropyl)amino)methyl)phenoxy)methyl)nicotinonitrile], the pIC50 is 8.00 to 9.68.
The result for `Cc1c(COc2cc(OCc3cncc(C#N)c3)c(CNC[C@H](O)CO)cc2Cl)cccc1-c1cccc(OCCCN2CC[C@H](O)[C@@H](O)C2)c1Cl` [Example 2030, 5-((4-chloro-5-((2′-chloro-3′-(3-((3S,4S)-3,4-dihydroxypiperidin-1-yl)propoxy)-2-methyl-[1,1′-biphenyl]-3-yl)methoxy)-2-((((S)-2,3-dihydroxypropyl)amino)methyl)phenoxy)methyl)nicotinonitrile] reads 8.00 to 9.68; that for `Cc1c(COc2cc(OCc3cncc(C#N)c3)c(CNC[C@H](O)CO)cc2Cl)cccc1-c1cccc(OCCCN2CC[C@H](CO)[C@H](O)C2)c1Cl` [Example 2031, 5-((4-chloro-5-((2′-chloro-3′-(3-((3 S,4R)-3-hydroxy-4-(hydroxymethyl)piperidin-1-yl)propoxy)-2-methyl-[1,1′-biphenyl]-3-yl)methoxy)-2-((((S)-2,3-dihydroxypropyl)amino)methyl)phenoxy)methyl)nicotinonitrile], 8.00 to 9.68.

For the origin of these results see US10745382B2 (BRISTOL-MYERS SQUIBB COMPANY, priority 2015, dated 2020).
